# In ChEMBL document CHEMBL3734705, “Synthesis and in vitro cytotoxicity of novel C-12 substituted-14-deoxy-andrographolide derivatives as potent anti-cancer agents” (2015):
# What was measured:
# [1] = tested on: Malme-3M; assay: Cytotoxicity against human MALME-3M cells assessed as growth level at 10 uM after 48 hrs by SRB assay; type: functional
# [2] = tested on: KM12; assay: Cytotoxicity against human KM12 cells assessed as growth inhibition at 10 uM after 48 hrs by SRB assay; type: functional; details: KM12, 48 h, read-out: GI
# [3] = Cytotoxicity against human OVCAR3 cells assessed as growth level at 10 uM after 48 hrs by SRB assay; type: functional, OVCAR-3
# [4] = Cytotoxicity against human HCC2998 cells assessed as growth level at 10 uM after 48 hrs by SRB assay; type: functional, HCC 2998
# [5] = tested on: NCI-H23; assay: Cytotoxicity against human NCI-H23 cells assessed as growth level at 10 uM after 48 hrs by SRB assay; type: functional
# [6] = Cytotoxicity against human HOP62 cells assessed as growth inhibition at 10 uM after 48 hrs by SRB assay; type: functional; details: HOP-62, 48 h, read-out: GI
# [7] = Cytotoxicity against human UO31 cells assessed as growth inhibition at 10 uM after 48 hrs by SRB assay; type: functional; details: UO-31, 48 h, read-out: GI
# [8] = Cytotoxicity against human SF295 cells assessed as growth level at 10 uM after 48 hrs by SRB assay; type: functional, SF-295
# [9] = Cytotoxicity against human OVCAR4 cells assessed as growth inhibition at 10 uM after 48 hrs by SRB assay; type: functional; details: OVCAR-4, 48 h, read-out: GI
# [10] = Cytotoxicity against human Caki1 cells assessed as growth level at 10 uM after 48 hrs by SRB assay; type: functional, CAKI-1
# [11] = Cytotoxicity against human UACC62 cells assessed as growth inhibition at 10 uM after 48 hrs by SRB assay; type: functional; details: UACC-62, 48 h, read-out: GI
# [12] = tested on: NCI-H522; assay: Cytotoxicity against human NCI-H522 cells assessed as growth inhibition at 10 uM after 48 hrs by SRB assay; type: functional; details: NCI-H522, 48 h, read-out: GI
# [13] = Cytotoxicity against human SF295 cells assessed as growth inhibition at 10 uM after 48 hrs by SRB assay; type: functional; details: SF-295, 48 h, read-out: GI
# [14] = tested on: SR; assay: Cytotoxicity against human SR cells assessed as growth level at 10 uM after 48 hrs by SRB assay; type: functional
# [15] = Cytotoxicity against human UACC62 cells assessed as growth level at 10 uM after 48 hrs by SRB assay; type: functional, UACC-62
# [16] = tested on: A498; assay: Cytotoxicity against human A498 cells assessed as growth level at 10 uM after 48 hrs by SRB assay; type: functional
# [17] = tested on: SR; assay: Cytotoxicity against human SR cells assessed as growth inhibition at 10 uM after 48 hrs by SRB assay; type: functional; details: read-out: GI
# [18] = tested on: SN12C; assay: Cytotoxicity against human SN12C cells assessed as growth level at 10 uM after 48 hrs by SRB assay; type: functional
# [19] = Cytotoxicity against human HOP62 cells assessed as growth level at 10 uM after 48 hrs by SRB assay; type: functional, HOP-62
# [20] = Cytotoxicity against human PC3 cells assessed as growth level at 10 uM after 48 hrs by SRB assay; type: functional, PC-3
# [21] = tested on: EKVX; assay: Cytotoxicity against human EKVX cells assessed as growth level at 10 uM after 48 hrs by SRB assay; type: functional
# [22] = tested on: ACHN; assay: Cytotoxicity against human ACHN cells assessed as growth level at 10 uM after 48 hrs by SRB assay; type: functional
# [23] = tested on: NCI-H322M; assay: Cytotoxicity against human NCI-H322M cells assessed as growth level at 10 uM after 48 hrs by SRB assay; type: functional
# [24] = Cytotoxicity against human HCC2998 cells assessed as growth inhibition at 10 uM after 48 hrs by SRB assay; type: functional; details: HCC 2998, 48 h, read-out: GI
# [25] = Cytotoxicity against human OVCAR5 cells assessed as growth level at 10 uM after 48 hrs by SRB assay; type: functional, OVCAR-5
# [26] = Cytotoxicity against human Hs578T cells assessed as growth inhibition at 10 uM after 48 hrs by SRB assay; type: functional; details: Hs-578T, read-out: GI
# [27] = Cytotoxicity against human IGROV1 cells assessed as growth level at 10 uM after 48 hrs by SRB assay; type: functional, IGROV-1
# [28] = Cytotoxicity against human MOLT4 cells assessed as growth level at 10 uM after 48 hrs by SRB assay; type: functional, MOLT-4
# [29] = Cytotoxicity against human OVCAR3 cells assessed as growth inhibition at 10 uM after 48 hrs by SRB assay; type: functional; details: OVCAR-3, 48 h, read-out: GI
# [30] = Cytotoxicity against human LOXIMVI cells assessed as growth level at 10 uM after 48 hrs by SRB assay; type: functional, LOX IMVI
# [31] = tested on: MDA-MB-468; assay: Cytotoxicity against human MDA-MB-468 cells assessed as growth inhibition at 10 uM after 48 hrs by SRB assay; type: functional; details: MDA-MB-468, 48 h, read-out: GI
# [32] = Cytotoxicity against human HCT116 cells assessed as growth inhibition at 10 uM after 48 hrs by SRB assay; type: functional; details: HCT-116, 48 h, read-out: GI
# [33] = Cytotoxicity against human DU145 cells assessed as growth inhibition at 10 uM after 48 hrs by SRB assay; type: functional; details: DU-145, 48 h, read-out: GI
# [34] = tested on: ACHN; assay: Cytotoxicity against human ACHN cells assessed as growth inhibition at 10 uM after 48 hrs by SRB assay; type: functional; details: read-out: GI
# [35] = tested on: HT-29; assay: Cytotoxicity against human HT-29 cells assessed as growth inhibition at 10 uM after 48 hrs by SRB assay; type: functional; details: HT-29, 48 h, read-out: GI
# [36] = tested on: 786-0; assay: Cytotoxicity against human 786-0 cells assessed as growth inhibition at 10 uM after 48 hrs by SRB assay; type: functional; details: 786-0, 48 h, read-out: GI
# [37] = tested on: Malme-3M; assay: Cytotoxicity against human MALME-3M cells assessed as growth inhibition at 10 uM after 48 hrs by SRB assay; type: functional; details: read-out: GI
# [38] = tested on: NCI-H226; assay: Cytotoxicity against human NCI-H226 cells assessed as growth inhibition at 10 uM after 48 hrs by SRB assay; type: functional; details: NCI-H226, 48 h, read-out: GI
# [39] = tested on: NCI-H460; assay: Cytotoxicity against human NCI-H460 cells assessed as growth inhibition at 10 uM after 48 hrs by SRB assay; type: functional; details: NCI-H460, 48 h, read-out: GI
# [40] = Cytotoxicity against human HL-60(TB) cells assessed as growth level at 10 uM after 48 hrs by SRB assay; type: functional
# [41] = Cytotoxicity against human SNB75 cells assessed as growth level at 10 uM after 48 hrs by SRB assay; type: functional, SNB-75
# [42] = Cytotoxicity against human SF539 cells assessed as growth inhibition at 10 uM after 48 hrs by SRB assay; type: functional; details: SF-539, 48 h, read-out: GI
# [43] = tested on: A498; assay: Cytotoxicity against human A498 cells assessed as growth inhibition at 10 uM after 48 hrs by SRB assay; type: functional; details: A498, 48 h, read-out: GI
# [44] = Cytotoxicity against human SKOV3 cells assessed as growth inhibition at 10 uM after 48 hrs by SRB assay; type: functional; details: SK-OV-3, 48 h, read-out: GI
structure (smiles),measurement,setting,value
C=C1CC[C@@H]2[C@](C)(COC(C)=O)[C@H](OC(C)=O)CC[C@@]2(C)[C@@H]1CC(NCc1cccc(Cl)c1)C1=CCOC1=O (mixture of isomers),Activity,[1],76.11%
same,inhibition of growth at 10 µM,[2],53.2%
same,Activity,[3],47.44%
same,Activity,[4],84.55%
same,Activity,[5],52.71%
same,inhibition of growth at 10 µM,[6],44%
same,inhibition of growth at 10 µM,[7],53.1%
same,Activity,[8],85.92%
same,inhibition of growth at 10 µM,[9],49.6%
same,Activity,[10],48.33%
same,inhibition of growth at 10 µM,[11],58.8%
same,inhibition of growth at 10 µM,[12],47.5%
same,inhibition of growth at 10 µM,[13],14.1%
same,Activity,[14],11.54%
same,Activity,[15],41.2%
same,Activity,[16],64.78%
same,inhibition of growth at 10 µM,[17],88.5%
same,Activity,[18],62.07%
same,Activity,[19],56%
same,Activity,[20],30.08%
same,Activity,[21],77.89%
same,Activity,[22],41.58%
same,Activity,[23],75.37%
same,inhibition of growth at 10 µM,[24],15.4%
same,Activity,[25],99.69%
same,inhibition of growth at 10 µM,[26],5.65%
same,Activity,[27],64.14%
same,Activity,[28],21.89%
same,inhibition of growth at 10 µM,[29],52.6%
same,Activity,[30],12.71%
same,inhibition of growth at 10 µM,[31],74.4%
same,inhibition of growth at 10 µM,[32],64.1%
same,inhibition of growth at 10 µM,[33],18.1%
same,inhibition of growth at 10 µM,[34],58.4%
same,inhibition of growth at 10 µM,[35],74.5%
same,inhibition of growth at 10 µM,[36],38%
same,inhibition of growth at 10 µM,[37],23.9%
same,inhibition of growth at 10 µM,[38],53.7%
same,inhibition of growth at 10 µM,[39],65.2%
same,Activity,[40],21.57%
same,Activity,[41],85.86%
same,inhibition of growth at 10 µM,[42],25.9%
same,inhibition of growth at 10 µM,[43],35.2%
same,inhibition of growth at 10 µM,[44],26.9%
C=C1CC[C@@H]2[C@](C)(COC(C)=O)[C@H](OC(C)=O)CC[C@@]2(C)[C@@H]1CC(NCc1ccc(F)cc1)C1=CCOC1=O (mixture of isomers),Activity,[1],65.1%
same,inhibition of growth at 10 µM,[2],53.5%
same,Activity,[3],23.7%
same,Activity,[4],89.3%
same,Activity,[5],57.85%
same,inhibition of growth at 10 µM,[6],21.2%
same,inhibition of growth at 10 µM,[7],68.7%
same,Activity,[8],96.13%
same,inhibition of growth at 10 µM,[9],69.1%
same,Activity,[10],45.98%
same,inhibition of growth at 10 µM,[11],67.8%
same,inhibition of growth at 10 µM,[12],79.1%
same,inhibition of growth at 10 µM,[13],3.87%
same,Activity,[14],7.69%
same,Activity,[15],32.2%
same,Activity,[16],51.71%
same,inhibition of growth at 10 µM,[17],92.3%
same,Activity,[18],46.23%
same,Activity,[19],78.73%
same,Activity,[20],20.82%
same,Activity,[21],50.01%
same,Activity,[22],50.93%
same,Activity,[23],72.54%
same,inhibition of growth at 10 µM,[24],10.7%
same,Activity,[25],99%
same,inhibition of growth at 10 µM,[26],27.5%
same,Activity,[27],48.35%
same,Activity,[28],-0.37%
same,inhibition of growth at 10 µM,[29],76.3%
same,Activity,[30],9.33%
same,inhibition of growth at 10 µM,[31],72.5%
same,inhibition of growth at 10 µM,[32],66.3%
same,inhibition of growth at 10 µM,[33],30.2%
same,inhibition of growth at 10 µM,[34],49.1%
same,inhibition of growth at 10 µM,[35],78.7%
same,inhibition of growth at 10 µM,[36],13.2%
same,inhibition of growth at 10 µM,[37],34.9%
same,inhibition of growth at 10 µM,[38],59.9%
same,inhibition of growth at 10 µM,[39],44.8%
same,Activity,[40],-9.52%
same,Activity,[41],58.06%
same,inhibition of growth at 10 µM,[42],35.5%
same,inhibition of growth at 10 µM,[43],48.3%
same,inhibition of growth at 10 µM,[44],5.68%
